Laboratory results as given in ChEMBL document CHEMBL3044631, “Synthesis of 2-[4,5-dimethyl-1-(phenylamino)-1H-imidazol-2-ylthio]-N-(thiazole-2-yl)acetamide derivatives and their anticancer activities” (2013).

Experiments:
Type in all cases: functional
CCRF-CEM = assay: Anticancer activity against Homo sapiens (human) CCRF-CEM cells assessed as cell growth promotion at 10 uM after 48 hr by SRB assay
OVCAR-3 = assay: Anticancer activity against Homo sapiens (human) OVCAR3 cells after 48 hr by SRB assay; settings: OVCAR-3, 48 h
MDA-MB-435 = assay: Anticancer activity against Homo sapiens (human) MDA-MB-435 cells after 48 hr by SRB assay; settings: MDA-MB-435, 48 h
COLO 205 = assay: Anticancer activity against Homo sapiens (human) COLO205 cells after 48 hr by SRB assay; settings: COLO 205, 48 h
M14 = assay: Anticancer activity against Homo sapiens (human) M14 cells after 48 hr by SRB assay; settings: M14, 48 h
HOP-62 = assay: Anticancer activity against Homo sapiens (human) HOP62 cells after 48 hr by SRB assay; settings: HOP-62, 48 h
NCI/ADR-RES = assay: Anticancer activity against Homo sapiens (human) NCI/ADR-RES cells after 48 hr by SRB assay
TK-10 = assay: Anticancer activity against Homo sapiens (human) TK10 cells after 48 hr by SRB assay; settings: TK-10, 48 h
HL-60(TB) = assay: Anticancer activity against Homo sapiens (human) HL-60(TB) cells after 48 hr by SRB assay; settings: HL-60, 48 h
SF-295 = assay: Anticancer activity against Homo sapiens (human) SF295 cells after 48 hr by SRB assay; settings: SF-295, 48 h
SF-268 = assay: Anticancer activity against Homo sapiens (human) SF268 cells after 48 hr by SRB assay; settings: SF-268, 48 h
NCI-H322M = assay: Anticancer activity against Homo sapiens (human) NCI-H322M cells after 48 hr by SRB assay
SK-MEL-2 = assay: Anticancer activity against Homo sapiens (human) SK-MEL-2 cells after 48 hr by SRB assay; settings: SK-MEL-2, 48 h
ACHN = assay: Anticancer activity against Homo sapiens (human) ACHN cells after 48 hr by SRB assay
DU-145 = assay: Anticancer activity against Homo sapiens (human) DU145 cells after 48 hr by SRB assay; settings: DU-145, 48 h
OVCAR-4 = assay: Anticancer activity against Homo sapiens (human) OVCAR4 cells after 48 hr by SRB assay; settings: OVCAR-4, 48 h
MDA-MB-231 = assay: Anticancer activity against Homo sapiens (human) MDA-MB-231/ATCC cells after 48 hr by SRB assay; settings: MDA-MB-231, 48 h
OVCAR-5 = assay: Anticancer activity against Homo sapiens (human) OVCAR5 cells after 48 hr by SRB assay; settings: OVCAR-5, 48 h
IGROV-1 = assay: Anticancer activity against Homo sapiens (human) IGROV1 cells after 48 hr by SRB assay; settings: IGROV-1, 48 h
NCI-H522 = assay: Anticancer activity against Homo sapiens (human) NCI-H522 cells after 48 hr by SRB assay; settings: NCI-H522, 48 h
MOLT-4 = assay: Anticancer activity against Homo sapiens (human) MOLT4 cells after 48 hr by SRB assay; settings: MOLT-4, 48 h
KM12 = assay: Anticancer activity against Homo sapiens (human) KM12 cells after 48 hr by SRB assay; settings: KM12, 48 h
HCT-15 = assay: Anticancer activity against Homo sapiens (human) HCT15 cells after 48 hr by SRB assay; settings: HCT-15, 48 h
MDA-MB-468 = assay: Anticancer activity against Homo sapiens (human) MDA-MB-468 cells after 48 hr by SRB assay; settings: MDA-MB-468, 48 h
CAKI-1 = assay: Anticancer activity against Homo sapiens (human) CAKI-1 cells after 48 hr by SRB assay; settings: CAKI-1, 48 h
SK-MEL-5 = assay: Anticancer activity against Homo sapiens (human) SK-MEL-5 cells after 48 hr by SRB assay; settings: SK-MEL-5, 48 h
T47D = assay: Anticancer activity against Homo sapiens (human) T47D cells after 48 hr by SRB assay
Hs-578T = assay: Anticancer activity against Homo sapiens (human) Hs 578T cells after 48 hr by SRB assay
NCI-H460 = assay: Anticancer activity against Homo sapiens (human) NCI-H460 cells after 48 hr by SRB assay; settings: NCI-H460, 48 h
HT-29 = assay: Anticancer activity against Homo sapiens (human) HT-29 cells after 48 hr by SRB assay; settings: HT-29, 48 h
U-251 = assay: Anticancer activity against Homo sapiens (human) U251 cells after 48 hr by SRB assay; settings: U-251, 48 h
[1] = read-out: LC50 (the source's name)

## Cc1nc(SCC(=O)Nc2nccs2)n(Nc2ccccc2)c1C
CCRF-CEM
  Activity: 102.19%

## COc1ccc(Nn2c(SCC(=O)Nc3nc(-c4ccc(Cl)cc4)cs3)nc(C)c2C)cc1
OVCAR-3
  GI50: 3.13 µM
  LC50 (50% lethal concentration): > 100 µM
  TGI: 24.2 µM
MDA-MB-435
  GI50: 3.22 µM
  LC50 (concentration killing 50% of cells): > 100 µM
  TGI: > 100 µM
COLO 205
  GI50: 1.94 µM
  TGI: 3.55 µM
COLO 205; [1]
  CC50: 6.51 µM
M14
  GI50: 3.02 µM
  LC50: > 100 µM
  TGI: > 100 µM
HOP-62
  LC50: > 100 µM
NCI/ADR-RES
  GI50: 2.89 µM
  LC50: > 100 µM
  TGI: > 100 µM
TK-10
  GI50: 14.8 µM
  LC50 (50% lethal concentration): > 100 µM
  TGI: 80.9 µM
HL-60(TB)
  GI50: > 100 µM
  TGI: 59.1 µM
HL-60(TB); [1]
  CC50: > 100 µM
SF-295
  GI50: 2.18 µM
  LC50: > 100 µM
  TGI: > 100 µM
SF-268
  GI50: 2.81 µM
  LC50: > 100 µM
  TGI: > 100 µM
NCI-H322M
  GI50: > 100 µM
  TGI: > 100 µM
NCI-H322M; [1]
  CC50: > 100 µM
SK-MEL-2
  GI50: 15.7 µM
  LC50 (concentration killing 50% of cells): > 100 µM
  TGI: 66.8 µM
ACHN
  GI50: 2.27 µM
  LC50 (concentration killing 50% of cells): > 100 µM
  TGI: 8.76 µM
DU-145
  GI50: 4.06 µM
  LC50 (concentration killing 50% of cells): > 100 µM
  TGI: > 100 µM
OVCAR-4
  GI50: 4.02 µM
  LC50 (concentration killing 50% of starting cells): > 100 µM
  TGI: > 100 µM
MDA-MB-231
  GI50: 8.37 µM
  TGI: > 100 µM
MDA-MB-231; [1]
  CC50: > 100 µM
OVCAR-5
  GI50: > 100 µM
  LC50: > 100 µM
  TGI: > 100 µM
IGROV-1
  GI50: 5.67 µM
  LC50 (concentration killing 50% of cells): > 100 µM
  TGI: > 100 µM
NCI-H522
  GI50: 5.05 µM
  LC50 (50% lethal concentration): > 100 µM
  TGI: > 100 µM
MOLT-4
  GI50: 2.54 µM
  LC50 (50% lethal concentration): > 100 µM
  TGI: > 100 µM
KM12
  GI50: 1.84 µM
  LC50 (concentration killing 50% of cells): > 100 µM
  TGI: 11.1 µM
HCT-15
  GI50: 4.79 µM
  TGI: > 100 µM
HCT-15; [1]
  CC50: > 100 µM
MDA-MB-468
  GI50: 0.57 µM
  LC50: > 100 µM
  TGI: 7.73 µM
CAKI-1
  GI50: 2.16 µM
  LC50 (concentration killing 50% of cells): > 100 µM
  TGI: > 100 µM
SK-MEL-5
  GI50: 1.41 µM
  LC50 (concentration killing 50% of cells): 7.96 µM
  TGI: 3.35 µM
T47D
  GI50: 1.23 µM
  TGI: 8.04 µM
T47D; [1]
  CC50: > 100 µM
Hs-578T
  GI50: 11.8 µM
  TGI: > 100 µM
Hs-578T; [1]
  CC50: > 100 µM
NCI-H460
  GI50: 2.69 µM
  LC50: > 100 µM
  TGI: 10.6 µM
HT-29
  GI50: 4.61 µM
  LC50: > 100 µM
  TGI: 50.4 µM
U-251
  GI50: 4.03 µM
  LC50 (lethal concentration, 50% net cell kill): > 100 µM
  TGI: > 100 µM

## CCOC(=O)c1csc(NC(=O)CSc2nc(C)c(C)n2Nc2ccc(C)cc2)n1
CCRF-CEM
  Activity: 24.68%
